Data taken from patent publication US12077503B2, “Substituted cyclic amides and their use as herbicides” (FMC CORPORATION, priority 2015, dated 2024).

Key:
Format in all cases: in vivo
[1] = test system: pigweed (Amaranthus retroflexus); assay: Test A preemergence; conditions: Amaranthus retroflexus, pre-emergence, 240 h, preemergence, 0 to 100 scale where 0 is no effect and 100 is complete control, read-out: Pigweed plant response rating
Kochia (Kochia scoparia) = assay: Test A preemergence; conditions: Bassia scoparia, pre-emergence, 240 h, preemergence, 0 to 100 scale where 0 is no effect and 100 is complete control, read-out: Kochia plant response rating
Summary of the method: (§1)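 Preemergence soil spray on seeded pots or post-emergence spray on 1–2 leaf plants, in loam–sand blend. Greenhouse ~10 d. Visual rating 0–100 against untreated plants.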

[2] = test system: ryegrass, Italian (Italian ryegrass, Lolium multiflorum); assay: Test A preemergence; conditions: Lolium multiflorum, pre-emergence, 240 h, preemergence, 0 to 100 scale where 0 is no effect and 100 is complete control, read-out: Ryegrass, Italian plant response rating
Summary of the method: as §1

[3] = test system: barnyardgrass (Echinochloa crus-galli); assay: Test A preemergence; conditions: Echinochloa crus-galli, pre-emergence, 240 h, preemergence, 0 to 100 scale where 0 is no effect and 100 is complete control, read-out: Barnyardgrass plant response rating
Summary of the method: as §1

[4] = test system: giant foxtail (Setaria faberii); assay: Test A preemergence; conditions: Setaria faberi, pre-emergence, 240 h, preemergence, 0 to 100 scale where 0 is no effect and 100 is complete control, read-out: Foxtail, Giant plant response rating
Summary of the method: as §1

[5] = test system: ragweed (common ragweed, Ambrosia elatior); assay: Test A preemergence; conditions: Ambrosia artemisiifolia, pre-emergence, 240 h, preemergence, 0 to 100 scale where 0 is no effect and 100 is complete control, read-out: Ragweed plant response rating
Summary of the method: as §1

[6] = test system: pigweed (Amaranthus retroflexus); assay: Test A postemergence; conditions: Amaranthus retroflexus, post-emergence, 240 h, postemergence
Summary of the method: as §1

[7] = test system: ryegrass, Italian (Italian ryegrass, Lolium multiflorum); assay: Test A postemergence; conditions: Lolium multiflorum, post-emergence, 240 h, postemergence
Summary of the method: as §1

corn (Zea mays) = assay: Test A postemergence; conditions: Zea mays, post-emergence, 240 h, postemergence
Summary of the method: as §1

[8] = test system: wheat (Triticum aestivum); assay: Test A postemergence; conditions: Triticum aestivum, post-emergence, 240 h, postemergence
Summary of the method: as §1

[9] = test system: blackgrass (Alopecurus myosuroides); assay: Test A postemergence; conditions: Alopecurus myosuroides, post-emergence, 240 h, postemergence
Summary of the method: as §1

[10] = test system: barnyardgrass (Echinochloa crus-galli); assay: Test A postemergence; conditions: Echinochloa crus-galli, post-emergence, 240 h, postemergence
Summary of the method: as §1

[11] = test system: giant foxtail (Setaria faberii); assay: Test A postemergence; conditions: Setaria faberi, post-emergence, 240 h, postemergence
Summary of the method: as §1

[12] = test system: ragweed (common ragweed, Ambrosia elatior); assay: Test A postemergence; conditions: Ambrosia artemisiifolia, post-emergence, 240 h, postemergence
Summary of the method: as §1

[13] = test system: Galium (catchweed bedstraw, Galium aparine); assay: Test A postemergence; conditions: Galium, post-emergence, 240 h, postemergence
Summary of the method: as §1

[14] = 125 g ai/ha, visual injury rating, approximately 10 d

Question: With `CN1C[C@H](c2ccc(C#N)cc2)[C@@H](C(=O)Nc2cccc(F)c2F)C1=O` [Compound 1208] as the compound, how does the pest or weed control at 125 g/ha [1, 14] read?
Answer: 60%

Question: What about the pest or weed control at 500 g/ha ([1]; 500 g ai/ha) of the same compound?
Answer: 90%

Question: What about the pest or weed control at 125 g/ha (Kochia (Kochia scoparia); [14]) of the same compound?
Answer: 70%

Question: What about the pest or weed control at 500 g/ha (Kochia (Kochia scoparia); 500 g ai/ha) of the same compound?
Answer: 100%

Question: And the pest or weed control at 125 g/ha [2, 14]?
Answer: 20%

Question: What about the pest or weed control at 500 g/ha ([2]; 500 g ai/ha) of the same compound?
Answer: 70%

Question: And the pest or weed control at 125 g/ha [3, 14]?
Answer: 90%

Question: What about the pest or weed control at 500 g/ha ([3]; 500 g ai/ha) of the same compound?
Answer: 100%

Question: And the pest or weed control at 125 g/ha [4, 14]?
Answer: 100%

Question: What about the pest or weed control at 500 g/ha ([4]; 500 g ai/ha) of the same compound?
Answer: 100%

Question: And the pest or weed control at 125 g/ha [5, 14]?
Answer: 40%

Question: What about the pest or weed control at 500 g/ha ([5]; 500 g ai/ha) of the same compound?
Answer: 100%

Question: And the pest or weed control at 125 g/ha ([6]; 125 g ai/ha, visual injury vs untreated controls after approx. 10 d, 0 = no effect, 100 = complete control, read-out: Pigweed plant response rating (0 to 100 scale))?
Answer: 30%

Question: And the pest or weed control at 500 g/ha ([6]; 500 g ai/ha, 0 to 100 scale, 0 is no effect, 100 is complete control, read-out: Pigweed plant response rating)?
Answer: 60%

Question: What about the pest or weed control at 125 g/ha ([7]; 125 g ai/ha, visual injury vs untreated controls after approx. 10 d, 0 = no effect, 100 = complete control, read-out: Ryegrass, Italian plant response rating (0 to 100 scale)) of the same compound?
Answer: 0%

Question: And the pest or weed control at 500 g/ha ([7]; 500 g ai/ha, 0 to 100 scale, 0 is no effect, 100 is complete control, read-out: Ryegrass, Italian plant response rating)?
Answer: 0%

Question: What about the plant injury at 125 g/ha (corn (Zea mays); 125 g ai/ha, visual injury vs untreated controls after approx. 10 d, 0 = no effect, 100 = complete control, read-out: Corn plant response rating (0 to 100 scale)) of the same compound?
Answer: 20%

Question: What about the plant injury at 500 g/ha (corn (Zea mays); 500 g ai/ha, 0 to 100 scale, 0 is no effect, 100 is complete control, read-out: Corn plant response rating) of the same compound?
Answer: 50%

Question: What about the plant injury at 125 g/ha ([8]; 125 g ai/ha, visual injury vs untreated controls after approx. 10 d, 0 = no effect, 100 = complete control, read-out: Wheat plant response rating (0 to 100 scale)) of the same compound?
Answer: 0%

Question: What about the plant injury at 500 g/ha ([8]; 500 g ai/ha, 0 to 100 scale, 0 is no effect, 100 is complete control, read-out: Wheat plant response rating) of the same compound?
Answer: 20%

Question: What about the pest or weed control at 125 g/ha ([9]; 125 g ai/ha, visual injury vs untreated controls after approx. 10 d, 0 = no effect, 100 = complete control, read-out: Blackgrass plant response rating (0 to 100 scale)) of the same compound?
Answer: 0%

Question: What about the pest or weed control at 500 g/ha ([9]; 500 g ai/ha, 0 to 100 scale, 0 is no effect, 100 is complete control, read-out: Blackgrass plant response rating) of the same compound?
Answer: 0%

Question: And the pest or weed control at 125 g/ha ([10]; 125 g ai/ha, visual injury vs untreated controls after approx. 10 d, 0 = no effect, 100 = complete control, read-out: Barnyardgrass plant response rating (0 to 100 scale))?
Answer: 100%

Question: And the pest or weed control at 500 g/ha ([10]; 500 g ai/ha, 0 to 100 scale, 0 is no effect, 100 is complete control, read-out: Barnyardgrass plant response rating)?
Answer: 100%

Question: What about the pest or weed control at 125 g/ha ([11]; 125 g ai/ha, visual injury vs untreated controls after approx. 10 d, 0 = no effect, 100 = complete control, read-out: Foxtail, Giant plant response rating (0 to 100 scale)) of the same compound?
Answer: 70%

Question: What about the pest or weed control at 500 g/ha ([11]; 500 g ai/ha, 0 to 100 scale, 0 is no effect, 100 is complete control, read-out: Foxtail, Giant plant response rating) of the same compound?
Answer: 90%

Question: What about the pest or weed control at 125 g/ha ([12]; 125 g ai/ha, visual injury vs untreated controls after approx. 10 d, 0 = no effect, 100 = complete control, read-out: Ragweed plant response rating (0 to 100 scale)) of the same compound?
Answer: 0%

Question: And the pest or weed control at 500 g/ha ([12]; 500 g ai/ha, 0 to 100 scale, 0 is no effect, 100 is complete control, read-out: Ragweed plant response rating)?
Answer: 40%

Question: What about the pest or weed control at 125 g/ha ([13]; 125 g ai/ha, visual injury vs untreated controls after approx. 10 d, 0 = no effect, 100 = complete control, read-out: Galium plant response rating (0 to 100 scale)) of the same compound?
Answer: 40%

Question: And the pest or weed control at 500 g/ha ([13]; 500 g ai/ha, 0 to 100 scale, 0 is no effect, 100 is complete control, read-out: Galium plant response rating)?
Answer: 50%
